Results: paper PMC11496873, “Synthesis, characterization, and in vitro–in ovo toxicological screening of silibinin fatty acids conjugates as prodrugs with potential biomedical applications” (Biomolecules and Biomedicine, 2024)
Read-outs that look alike come from different tables or passages of the source.

Experiments:
[1] = tested on: chorioallantoic membrane (CAM); assay: In ovo irritation test (HET-CAM); assay type: in vivo, chicken; details: SIL-O and SIL-L at 100 µM
Description: The potential irritant effect of SIL-O and SIL-L (100 µM) was assessed in ovo, by applying the Hen’s Egg Test – Chorioallantoic Membrane (HET-CAM) test. The applied procedure was also described by Breban-Schwarzkopf et al.. Briefly, chicken-fertilized eggs were cleaned and disinfected with ethanol 70% and placed in an incubator at 37 ^∘C and 60% humidity. On the fourth day of incubation, a cut was performed on the eggs’ tips to allow the extraction of 6–7 mL albumen, while on the fifth day, a window was cut on the upper side of each egg and covered with adhesive tape. The experiment was performed on the tenth day of incubation, by applying the samples directly on the chorioallantoic membrane (CAM) and analyzing the occurrence of vascular impairments, such as hemorrhage, lysis, and coagulation for 5 min. Representative pictures were taken before the start of the experiment (T0) and at its end (T5) using the Discovery 8 SteREO Microscope equipped with an Axio CAM 105 color camera and processed in ZEN core version 3.8 software (Zeiss, Göttingen, Germany). The irritant potential was determined by calculating the irritation score (IS) for each sample and interpreted as presented in a previous publication.

MTT cell viability assay = assay type: cell-based
Description: The study was performed using three cell lines – H9c2(2-1) cardiomyoblasts (CRL-1446™), HepaRG hepatocytes (HPRGC10), and HaCaT keratinocytes (300493) – delivered as frozen vials by ATCC (Lomianki, Poland), ThermoFisher Scientific (Waltham, MA, USA), and CLS Cell Lines Service GmbH (Eppelheim, Germany), respectively. H9c2(2-1) and HaCaT cells were grown in DMEM, while HepaRG cells were cultured in William’s E Medium containing insulin from bovine pancreas (at a final concentration of 4 µg/mL) and hydrocortisone 21-hemisuccinate sodium salt (at a final concentration of 50 µM). Both media were supplemented with 10% FCS and 1% antibiotics (penicillin 100 U/mL and streptomycin 100 µg/mL). The cells were cultured at 37 ^∘C and 5% CO2, in a humidified incubator for cell culture, presenting normal proliferation during the experiments.
The impact of all tested compounds (1, 10, 25, 50, and 100 µM) on the viability of H9c2(2-1), HepaRG, and HaCaT cells was assessed using the MTT method which was performed according to a previous publication. Briefly, the cells cultured in 96-well plates were exposed to SIL, SIL-O, and SIL-L for 24 h. At the end of the treatment, the culture medium containing SIL, SIL-O, and SIL-L was removed and replaced with 100 µL/well of the specific culture media for the used cell lines (DMEM for H9c2(2-1) cells and HaCaT; William’s E Medium for HepaRG). Then, 10 µL of MTT reagent was added in every well, followed by 3 h of incubation of the plates at 37 ^∘C. The absorbance measurements were performed at 570 and 630 nm on Cytation 5 Microplate Reader (BioTek Instruments Inc., Winooski, VT, USA) following the addition of the MTT solubilization solution (a volume of 100 µL/well), and the plates’ incubation at room temperature for 30 min, protected from light.

HaCaT keratinocytes = assay: Hoechst 33342 nuclear staining, apoptotic index; assay type: cell-based, human; details: 100 µM, 24 h
Description: The influence of SIL, SIL-O, and SIL-L (100 µM) on nuclear morphology was evaluated by imaging the cells’ nuclei stained with Hoechst 33342. Shortly, at the end of the treatment, the H9c2(2-1), HepaRG, and HaCaT cells cultured in 12-well plates were treated with staining solution (500 µL/well, dilution of 1:2000 in PBS) for 10 min at room temperature, protected from light and washed with PBS before imaging which was performed on Cytation 1 Imaging Reader (BioTek Instruments Inc., Winooski, VT, USA). Image processing was conducted using the Gen5™ Microplate Data Collection and Analysis Software (BioTek Instruments Inc., Winooski, VT, USA). Apoptotic index (AI) was calculated by applying the formula previously reported: […]

H9c2(2-1) cells = assay: Cell migration (scratch) assay; assay type: cell-based; details: 24 h, normalized to control
Description: (§1) To investigate the effect of SIL, SIL-O, and SIL-L treatments on the migration of H9c2(2-1), HepaRG, and HaCaT cells, the scratch assay was performed as follows: (A) the cells (10^5 cells/mL/well) were seeded in Corning Costar 24-well plates and left to attach and reach a proper confluence, (B) a scratch was automatically made in every well using the AutoScratch™ Wound Making Tool (BioTek Instruments Inc., Winooski, VT, USA), (C) the cells were exposed to SIL and its FAs derivatives 1, 10, and 25 µM for 24 h, and (D) the wound area was imaged at two time points (0 and 24 h) using Cytation 1 Imaging Reader (BioTek® Instruments Inc., Winooski, VT, USA). The Gen5 ™ Microplate Data Collection and Analysis Software (BioTek® Instruments Inc., Winooski, VT, USA) was used to measure the wound widths in each image. The migration rates (%) for the applied treatments were determined using the formula presented below and normalized to control.
(§2) Migration rate (%) ═ [drawing 2] ×100, where:
(§3) At0 ═ wound width at 0 h,
(§4) At24 ═ wound width at 24 h.

HepaRG cells = assay: Cell migration (scratch) assay; assay type: cell-based; details: 24 h, normalized to control
Description: as §1, §2, §3, §4

HaCaT cells [2] = assay: Cell migration (scratch) assay; assay type: cell-based, human; details: 24 h
Description: as §1, §2, §3, §4

[3] = parameters: method as in PMID 19601873; details: buffers with pH 1.0–7.8 and physiological media (plasma, intestinal and liver fluids); cited from earlier work
H9c2 cells = tested on: H9c2 cells; parameters: method as in PMID 22818713; details: concentrations up to 200 µM, 48 h; cited from earlier work
[4] = tested on: HK-2 human renal tubular endothelial cells; parameters: method as in PMID 32103902; details: HK-2 cells, 60 and 90 µM, 48 h; cited from earlier work
[5] = tested on: Madin–Darby Canine Kidney (MDCK) cells; parameters: method as in PMID 20036447; details: 800 µM, 2 h; cited from earlier work
[6] = tested on: LX-2 human hepatic stellate cells; parameters: method as in PMID 27746612; details: LX-2 cells, 10, 50 and 100 µM; cited from earlier work
HaCaT cells [7] = tested on: HaCaT cells; parameters: method as in earlier work; details: 24 h, cited from earlier work

In the case of `CCCCCCCCCCCCOS(=O)(=O)[O-].[Na+]` [SDS 1%, sodium dodecyl sulfate], the “IS value (irritation score)” value ([1]; 5 min) was 19.74 and the “Observation (irritant classification)” value ([1]; based on IS value) was “Strong irritant”.
With `COc1cc(C2Oc3cc([C@H]4Oc5cc(O)cc(O)c5C(=O)[C@@H]4O)ccc3OC2CO)ccc1O` (some centres unmarked) [SIL, Silibinin] the viability at 24 h (MTT cell viability assay; human, HepaRG hepatocytes, higher concentrations (reduction up to), normalized to control) was ~80%, the viability at 24 h, 1 µM (MTT cell viability assay; rat, H9c2(2-1) cardiomyoblasts, 1 µM, normalized to control) was 128% and the viability at 24 h, 100 µM (MTT cell viability assay; rat, H9c2(2-1) cardiomyoblasts, all tested concentrations (1, 10, 25, 50, 100 µM), compared to control) was > 100%. The “apoptotic index (AI)” value (HaCaT keratinocytes) was “no significant changes”, the migration rate (H9c2(2-1) cells; 1 µM) was 105.34% and the migration rate (H9c2(2-1) cells; 25 µM) was 119.8%. The migration rate (HepaRG cells; 10 µM) was “around 50%”, the migration rate (HepaRG cells; 25 µM) was “around 50%” and the effect on migration (HaCaT cells [2]; 25 µM, compared to control) was “significant inhibition”. For the same molecule, the effect on migration (HaCaT cells [2]; 1 and 10 µM) was “neither SIL, nor SIL-O or SIL-L affected”, the stability [3] was “unstable” and the cytotoxicity (H9c2 cells) was “not cytotoxic”. The effect on viability [4] was “significantly decreased the viability”, the cytotoxicity [5] was “no cytotoxic effect” and the “effect on migratory properties” value [6] was “inhibitory effect”.
In the case of `CCCCCCCC/C=C\CCCCCCCC(=O)Oc1c(-c2ccc(O)c(O)c2)oc2cc(O)cc(O)c2c1=O` [quercetin-3-oleate], the “enhancement in wound healing compared to control” value (“enhancement … compared to control” below) (HaCaT cells [7]; 0.1 µM (first concentration listed)) is given as 47%, the “enhancement … compared to control” value (HaCaT cells [7]; 0.1 µM (second concentration listed)) is given as 35% and the “enhancement … compared to control” value (HaCaT cells [7]; 1 µM) is given as 51%.
